Laboratory results taken from patent US12473291B2 (priority 2019, dated 2025).
Where two headings read alike, the source gives them in different places.

Tests used:
KM mice = assay: animal or person; format: in vivo; conditions: for 2ED50 duration / 2ED50 recovery time / Quality of recovery: KM mice; for 2ED50 duration / 2ED50 recovery time: single tail vein injection at 2×ED50; for 2ED50 duration: time from disappearance to recovery of righting reflex; for 2ED50 recovery time: time from recovery of righting reflex to free crawling; for Quality of recovery: tail vein injection; for ED50: KM mice (male, 18-22 g), injection via the tail vein, disappearance of righting reflex; for duration and recovery time compared with remimazolam / effective dose compared with remimazolam: mice, tail vein, in words
SD rats = assay: animal or person; format: in vivo; conditions: for ED50: SD rats (male, 220-300 g), injection via the tail vein, disappearance of righting reflex; for 2ED50 duration / 2ED50 recovery time / Quality of recovery: SD rats; for 2ED50 duration / 2ED50 recovery time: single tail vein injection at 2×ED50; for 2ED50 duration: time from disappearance to recovery of righting reflex; for 2ED50 recovery time: time from recovery of righting reflex to free crawling; for Quality of recovery: tail vein injection; for duration and recovery time compared with remimazolam / effective dose compared with remimazolam: rats, tail vein, in words
[1] = Rattus norvegicus, read-out: ED50

SMILES | 2ED50 duration (KM mice) [min] | 2ED50 recovery time (KM mice) [min] | Quality of recovery (KM mice) | ED50 (KM mice; Mus musculus, read-out: ED50) [mg/kg] | ED50 (SD rats; [1]) [mg/kg] | 2ED50 duration (SD rats) [min] | 2ED50 recovery time (SD rats) [min] | Quality of recovery (SD rats) | duration and recovery time compared with remimazolam (KM mice) | effective dose compared with remimazolam (KM mice) | duration and recovery time compared with remimazolam (SD rats) | effective dose compared with remimazolam (SD rats) | ED50 (KM mice) [mg/kg] | ED50 (SD rats) [mg/kg]
Cc1cnc2n1-c1cc(C(F)(F)F)c(Cl)cc1C(c1cccnc1)=N[C@H]2CCC(=O)OCOC(=O)OC(C)C [Example 32] | 4.34 | 2.01 | ++++ (“++++” means 5-10 min) | 31.1 | 3.1 | 3.34 | 2.41 | +++ (“+++” means 3-5 min) | – | – | – | – | – | –
Cc1cnc2n1-c1cc(Br)c(Cl)cc1C(c1ccncc1)=N[C@H]2CCC(=O)OCOC(=O)OC(C)(C)C [Example 33] | 3.21 | 1.48 | ++ (“++” means 1-3 min) | 21.2 | 6.2 | 3.51 | 2.38 | +++ (“+++” means 3-5 min) | – | – | – | – | – | –
COC(=O)OCOC(=O)CC[C@@H]1N=C(c2ccccn2)c2cc(Br)ccc2-n2c(C)cnc21 [Example 34] | 1.31 | 1.23 | – | 14.4 | 3.4 | 1.21 | 1.01 | + (“+” means <1 min) | significantly shorter | significantly lower | significantly shorter | significantly lower | – | –
CCOC(=O)OCOC(=O)CC[C@@H]1N=C(c2ccccn2)c2cc(Br)ccc2-n2c(C)cnc21 [Example 35] | 5.25 | 2.02 | +++ (“+++” means 3-5 min) | 25.2 | 5.2 | 3.20 | 2.52 | ++ (“++” means 1-3 min) | – | – | – | – | – | –
CCOC(=O)OCOC(=O)CC[C@@H]1N=C(c2ccccn2)c2ccc(Cl)cc2-n2c(C)cnc21 [Example 36] | 4.34 | 1.49 | +++ (“+++” means 3-5 min) | 27.8 | 2.8 | 3.14 | 2.39 | +++ (“+++” means 3-5 min) | – | – | – | – | – | –
CCOC(=O)COC(=O)CC[C@@H]1N=C(c2ccccn2)c2cccc(Cl)c2-n2c(C)cnc21 [Example 37] | 4.42 | 1.58 | ++ (“++” means 1-3 min) | 25.7 | 5.7 | 3.02 | 2.51 | ++ (“++” means 1-3 min) | – | – | – | – | – | –
CCOC(=O)COC(=O)CC[C@@H]1N=C(c2ccccn2)c2cc(Cl)ccc2-n2c(C)cnc21 [Example 38] | 3.25 | 1.25 | ++ (“++” means 1-3 min) | – | – | 4.05 | 2.55 | ++++ (“++++” means 5-10 min) | – | – | – | – | 25 | 6.5
COC(=O)C1(OC(=O)CC[C@@H]2N=C(c3ccccn3)c3c(Cl)cc(C(F)(F)F)cc3-n3c(C)cnc32)CC1 [Example 39] | 5.09 | 2.28 | +++ (“+++” means 3-5 min) | 26.7 | 6.7 | 4.03 | 2.48 | ++ (“++” means 1-3 min) | – | – | – | – | – | –
COC(=O)C1(OC(=O)CC[C@@H]2N=C(c3ccccn3)c3cc(Cl)c(C(F)(F)F)cc3-n3c(C)cnc32)CC1 [Example 40] | 4.26 | 1.55 | ++ (“++” means 1-3 min) | – | – | 4.06 | 2.01 | ++ (“++” means 1-3 min) | – | – | – | – | 24.8 | 6.8
COC(=O)C1(OC(=O)CC[C@@H]2N=C(c3ccccn3)c3ccc(C(F)(F)F)c(Cl)c3-n3c(C)cnc32)CC1 [Example 41] | 3.53 | 1.57 | ++ (“++” means 1-3 min) | 28.9 | 5.9 | 3.43 | 2.47 | ++ (“++” means 1-3 min) | – | – | – | – | – | –
CC(=O)O.COC(=O)C1(OC(=O)CC[C@@H]2N=C(c3ccccn3)c3cc(Cl)c(OC(F)(F)F)cc3-n3c(C)cnc32)CC1 [Example 42] | 0.58 | 0.53 | + (“+” means <1 mm) | – | – | 0.51 | 0.31 | + (“+” means <1 min) | significantly shorter | significantly lower | significantly shorter | significantly lower | 8.7 | 4.7
COC(=O)C1(OC(=O)CC[C@@H]2N=C(c3ccccn3)c3c(Cl)cc(OC(F)(F)F)cc3-n3c(C)cnc32)CC1.O=C(O)O [Example 43] | 6.01 | 2.13 | ++++ (“++++” means 5-10 min) | – | – | 3.01 | 2.41 | ++ (“++” means 1-3 min) | – | – | – | – | 29.5 | 6.5
COC(=O)C1(OC(=O)CC[C@@H]2N=C(c3ccccn3)c3cc(Cl)c(Br)cc3-n3c(C)cnc32)CC1 [Example 45] | 2.20 | 1.53 | ++++ (“++++” means 5-10 min) | 30 | 7.1 | 3.01 | 2.00 | ++ (“++” means 1-3 min) | – | – | – | – | – | –
COC(=O)C1(OC(=O)CC[C@@H]2N=C(c3ccccn3)c3cc(Cl)c(Cl)c(Cl)c3-n3c(C)cnc32)CC1 [Example 46] | 1.21 | 1.08 | +++ (“+++” means 3-5 min) | 32 | 6.3 | 3.17 | 2.28 | + (“+” means <1 min) | – | – | significantly shorter | significantly lower | – | –
CCCOC(=O)OCOC(=O)CC[C@@H]1N=C(c2ccccn2)c2cc(Br)ccc2-n2c(C)cnc21 [Example 47] | 3.90 | 2.42 | ++++ (“++++” means 5-10 min) | 27 | 6.2 | 4.07 | 2.38 | ++ (“++” means 1-3 min) | – | – | – | – | – | –
Cc1cnc2n1-c1ccc(Br)cc1C(c1ccccn1)=N[C@H]2CCC(=O)OCOC(=O)OC(C)C [Example 48] | 8.56 | 2.48 | ++++ (“++++” means 5-10 min) | 27 | 5.3 | 4.16 | 2.42 | +++ (“+++” means 3-5 min) | – | – | – | – | – | –
Cc1cnc2n1-c1ccc(Br)cc1C(c1ccccn1)=N[C@H]2CCC(=O)OCOC(=O)OC(C)(C)C [Example 49] | 2.65 | 1.22 | – | 20 | 5 | 1.24 | 2.01 | + (“+” means <1 min) | significantly shorter | significantly lower | significantly shorter | significantly lower | – | –
CCC(CC)OC(=O)OCOC(=O)CC[C@@H]1N=C(c2ccccn2)c2cc(Br)ccc2-n2c(C)cnc21 [Example 50] | 7.84 | 1.47 | ++ (“++” means 1-3 min) | 24.6 | 6.3 | 3.56 | 2.41 | ++ (“++” means 1-3 min) | – | – | – | – | – | –
Cc1cnc2n1-c1ccc(Br)cc1C(c1ccccn1)=N[C@H]2CCC(=O)OCOC(=O)OC(C)C(C)C (stereo partly shown) [Example 51] | >10 | 2.39 | +++ (“+++” means 3-5 min) | 27.8 | 6.5 | 3.09 | 2.32 | +++ (“+++” means 3-5 min) | – | – | – | – | – | –
Cc1cnc2n1-c1ccc(Br)cc1C(c1ccccn1)=N[C@H]2CCC(=O)OCOC(=O)OC(C(C)C)C(C)C [Example 52] | >10 | 1.49 | ++++ (“++++” means 5-10 min) | 32 | 6.8 | 4.03 | 2.41 | ++ (“++” means 1-3 min) | – | – | – | – | – | –
